# Results as given in ChEMBL document CHEMBL4507311, “Data for DCP probe A-1155463” (2021).
# Key:
# [1] = biological target: Macrophage colony-stimulating factor 1 receptor (Homo sapiens) (UniProt P07333); details: Compound concentration 1000.0 nM
# [2] = biological target: Ephrin type-A receptor 4 (Homo sapiens) (UniProt P54764); details: Compound concentration 1000.0 nM
# [3] = biological target: Dual serine/threonine and tyrosine protein kinase (Homo sapiens) (UniProt Q6XUX3); details: Compound concentration 1000.0 nM
# [4] = biological target: Serine/threonine-protein kinase mTOR (Homo sapiens) (UniProt P42345); details: Compound concentration 1000.0 nM
# [5] = tested on: Receptor-type tyrosine-protein kinase FLT3 (Homo sapiens), P36888 [D835Y]; details: Compound concentration 1000.0 nM
# [6] = biological target: 5-hydroxytryptamine receptor 6 (Homo sapiens) (UniProt P50406); details: Compound concentration 10.0 uM
# [7] = biological target: cAMP-dependent protein kinase catalytic subunit PRKX (Homo sapiens) (UniProt P51817); details: Compound concentration 1000.0 nM
# [8] = biological target: Tyrosine-protein kinase ABL2 (Homo sapiens) (UniProt P42684); details: Compound concentration 1000.0 nM
# [9] = biological target: Ribosomal protein S6 kinase alpha-2 (Homo sapiens) (UniProt Q15349); details: Compound concentration 1000.0 nM
# [10] = biological target: Non-receptor tyrosine-protein kinase TNK1 (Homo sapiens) (UniProt Q13470); details: Compound concentration 1000.0 nM
# [11] = biological target: Dual specificity mitogen-activated protein kinase kinase 2 (Homo sapiens) (UniProt P36507); details: Compound concentration 1000.0 nM
# [12] = biological target: Serine/threonine-protein kinase WNK3 (Homo sapiens) (UniProt Q9BYP7); details: Compound concentration 1000.0 nM
# [13] = biological target: Serine/threonine-protein kinase ULK2 (Homo sapiens) (UniProt Q8IYT8); details: Compound concentration 1000.0 nM
# [14] = biological target: Testis-specific serine/threonine-protein kinase 1 (Homo sapiens) (UniProt Q9BXA7); details: Compound concentration 1000.0 nM
# [15] = biological target: Citron Rho-interacting kinase (Homo sapiens) (UniProt O14578); details: Compound concentration 1000.0 nM
# [16] = biological target: Glycogen synthase kinase-3 alpha (Homo sapiens) (UniProt P49840); details: Compound concentration 1000.0 nM
# [17] = biological target: Serine/threonine-protein kinase RIO2 (Homo sapiens) (UniProt Q9BVS4); details: Compound concentration 1000.0 nM
# [18] = tested on: Epidermal growth factor receptor (Homo sapiens), P00533 [G719S]; details: Compound concentration 1000.0 nM
# [19] = tested on: Receptor-type tyrosine-protein kinase FLT3 (Homo sapiens), P36888 [UNDEFINED MUTATION]; details: Compound concentration 1000.0 nM
# [20] = biological target: Tyrosine-protein kinase Srms (Homo sapiens) (UniProt Q9H3Y6); details: Compound concentration 1000.0 nM
# [21] = biological target: Mitogen-activated protein kinase 13 (Homo sapiens) (UniProt O15264); details: Compound concentration 1000.0 nM
# [22] = biological target: Sodium-dependent serotonin transporter (Homo sapiens) (UniProt P31645); details: Compound concentration 10.0 uM
# [23] = tested on: Epidermal growth factor receptor (Homo sapiens), P00533 [G719C]; details: Compound concentration 1000.0 nM
# [24] = tested on: Phosphatidylinositol 4,5-bisphosphate 3-kinase catalytic subunit alpha isoform (Homo sapiens), P42336 [Q546K]; details: Compound concentration 1000.0 nM
# [25] = biological target: Beta-adrenergic receptor kinase 1 (Homo sapiens) (UniProt P25098); details: Compound concentration 1000.0 nM
# [26] = biological target: Serine/threonine-protein kinase DCLK2 (Homo sapiens) (UniProt Q8N568); details: Compound concentration 1000.0 nM
# [27] = biological target: Uncharacterized serine/threonine-protein kinase SBK3 (Homo sapiens) (UniProt P0C264); details: Compound concentration 1000.0 nM
# [28] = biological target: Serine/threonine-protein kinase BRSK2 (Homo sapiens) (UniProt Q8IWQ3); details: Compound concentration 1000.0 nM
# [29] = biological target: Serine/threonine-protein kinase PAK 5 (Homo sapiens) (UniProt Q9P286); details: Compound concentration 1000.0 nM
# [30] = biological target: Non-receptor tyrosine-protein kinase TYK2 (Homo sapiens) (UniProt P29597); details: Compound concentration 1000.0 nM
# [31] = biological target: Serine/threonine-protein kinase MRCK beta (Homo sapiens) (UniProt Q9Y5S2); details: Compound concentration 1000.0 nM
# [32] = biological target: 5-hydroxytryptamine receptor 2A (Homo sapiens) (UniProt P28223); details: Compound concentration 10.0 uM
# [33] = biological target: ALK tyrosine kinase receptor (Homo sapiens) (UniProt Q9UM73); details: Compound concentration 1000.0 nM
# [34] = biological target: Myosin-IIIa (Homo sapiens) (UniProt Q8NEV4); details: Compound concentration 1000.0 nM
# [35] = biological target: Delta-type opioid receptor (Homo sapiens, UniProt P41143); details: Compound concentration 10.0 uM
# [36] = tested on: Receptor-type tyrosine-protein kinase FLT3 (Homo sapiens), P36888 [K663Q]; details: Compound concentration 1000.0 nM
# [37] = biological target: Alpha-1D adrenergic receptor (Homo sapiens) (UniProt P25100); details: Compound concentration 10.0 uM
# [38] = biological target: Histamine H2 receptor (Homo sapiens) (UniProt P25021); details: Compound concentration 10.0 uM
# [39] = biological target: Serine/threonine-protein kinase PLK2 (Homo sapiens) (UniProt Q9NYY3); details: Compound concentration 1000.0 nM
# [40] = biological target: LIM domain kinase 1 (Homo sapiens) (UniProt P53667); details: Compound concentration 1000.0 nM
# [41] = tested on: Hepatocyte growth factor receptor (Homo sapiens), P08581 [M1250T]; details: Compound concentration 1000.0 nM
# [42] = biological target: Myosin-IIIb (Homo sapiens) (UniProt Q8WXR4); details: Compound concentration 1000.0 nM
# [43] = tested on: Tyrosine-protein kinase ABL1 (Homo sapiens), P00519 [H396P]; details: Compound concentration 1000.0 nM
# Sequence of Mitogen-activated protein kinase 13 (Homo sapiens) (O15264 whole entry): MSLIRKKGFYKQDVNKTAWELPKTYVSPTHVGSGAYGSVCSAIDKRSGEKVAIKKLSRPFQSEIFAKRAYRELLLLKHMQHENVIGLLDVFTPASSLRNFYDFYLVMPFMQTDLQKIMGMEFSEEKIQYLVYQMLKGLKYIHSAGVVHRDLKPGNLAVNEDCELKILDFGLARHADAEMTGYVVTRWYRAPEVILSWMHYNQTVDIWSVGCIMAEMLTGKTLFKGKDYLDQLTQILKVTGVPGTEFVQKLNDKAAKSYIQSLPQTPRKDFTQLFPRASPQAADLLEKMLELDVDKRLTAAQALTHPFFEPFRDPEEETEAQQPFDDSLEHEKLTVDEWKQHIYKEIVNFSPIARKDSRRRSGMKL
# Sequence of Non-receptor tyrosine-protein kinase TNK1 (Homo sapiens) (Q13470 whole entry): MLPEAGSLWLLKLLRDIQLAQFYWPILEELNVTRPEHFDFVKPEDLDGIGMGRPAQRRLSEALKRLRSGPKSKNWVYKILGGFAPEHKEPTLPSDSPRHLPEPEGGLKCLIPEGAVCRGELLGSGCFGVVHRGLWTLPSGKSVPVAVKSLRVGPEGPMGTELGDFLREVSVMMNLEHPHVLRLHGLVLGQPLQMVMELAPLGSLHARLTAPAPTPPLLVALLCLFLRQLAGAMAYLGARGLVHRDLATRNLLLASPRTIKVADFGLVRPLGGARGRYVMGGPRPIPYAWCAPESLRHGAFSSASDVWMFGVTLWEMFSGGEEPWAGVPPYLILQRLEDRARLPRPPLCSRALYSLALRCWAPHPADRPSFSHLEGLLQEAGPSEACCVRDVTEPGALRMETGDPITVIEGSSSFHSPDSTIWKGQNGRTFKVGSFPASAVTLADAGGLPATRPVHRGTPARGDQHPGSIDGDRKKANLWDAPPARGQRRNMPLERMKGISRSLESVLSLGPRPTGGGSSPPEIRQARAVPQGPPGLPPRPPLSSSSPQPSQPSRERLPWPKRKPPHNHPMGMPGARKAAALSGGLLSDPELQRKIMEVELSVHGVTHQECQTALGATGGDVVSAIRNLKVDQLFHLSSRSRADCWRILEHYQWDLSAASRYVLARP
# Sequence of Sodium-dependent serotonin transporter (Homo sapiens) (P31645 whole entry, looked up): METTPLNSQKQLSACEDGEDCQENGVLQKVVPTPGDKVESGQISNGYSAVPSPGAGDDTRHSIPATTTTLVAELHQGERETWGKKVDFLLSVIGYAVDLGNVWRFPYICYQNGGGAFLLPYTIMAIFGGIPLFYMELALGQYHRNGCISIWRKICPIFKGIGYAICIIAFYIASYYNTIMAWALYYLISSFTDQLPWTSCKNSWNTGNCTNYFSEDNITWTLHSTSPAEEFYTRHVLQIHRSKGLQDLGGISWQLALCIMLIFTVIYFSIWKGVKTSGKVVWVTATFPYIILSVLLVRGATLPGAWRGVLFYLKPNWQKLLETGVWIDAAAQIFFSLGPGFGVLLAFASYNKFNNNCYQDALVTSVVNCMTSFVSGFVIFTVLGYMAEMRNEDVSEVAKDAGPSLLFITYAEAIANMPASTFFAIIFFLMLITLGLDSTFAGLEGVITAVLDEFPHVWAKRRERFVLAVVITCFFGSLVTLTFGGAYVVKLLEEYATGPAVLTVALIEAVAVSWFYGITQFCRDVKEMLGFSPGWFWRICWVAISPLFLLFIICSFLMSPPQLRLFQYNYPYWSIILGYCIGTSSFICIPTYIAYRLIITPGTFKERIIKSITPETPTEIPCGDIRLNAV
# Sequence of Serine/threonine-protein kinase MRCK beta (Homo sapiens) (Q9Y5S2 whole entry): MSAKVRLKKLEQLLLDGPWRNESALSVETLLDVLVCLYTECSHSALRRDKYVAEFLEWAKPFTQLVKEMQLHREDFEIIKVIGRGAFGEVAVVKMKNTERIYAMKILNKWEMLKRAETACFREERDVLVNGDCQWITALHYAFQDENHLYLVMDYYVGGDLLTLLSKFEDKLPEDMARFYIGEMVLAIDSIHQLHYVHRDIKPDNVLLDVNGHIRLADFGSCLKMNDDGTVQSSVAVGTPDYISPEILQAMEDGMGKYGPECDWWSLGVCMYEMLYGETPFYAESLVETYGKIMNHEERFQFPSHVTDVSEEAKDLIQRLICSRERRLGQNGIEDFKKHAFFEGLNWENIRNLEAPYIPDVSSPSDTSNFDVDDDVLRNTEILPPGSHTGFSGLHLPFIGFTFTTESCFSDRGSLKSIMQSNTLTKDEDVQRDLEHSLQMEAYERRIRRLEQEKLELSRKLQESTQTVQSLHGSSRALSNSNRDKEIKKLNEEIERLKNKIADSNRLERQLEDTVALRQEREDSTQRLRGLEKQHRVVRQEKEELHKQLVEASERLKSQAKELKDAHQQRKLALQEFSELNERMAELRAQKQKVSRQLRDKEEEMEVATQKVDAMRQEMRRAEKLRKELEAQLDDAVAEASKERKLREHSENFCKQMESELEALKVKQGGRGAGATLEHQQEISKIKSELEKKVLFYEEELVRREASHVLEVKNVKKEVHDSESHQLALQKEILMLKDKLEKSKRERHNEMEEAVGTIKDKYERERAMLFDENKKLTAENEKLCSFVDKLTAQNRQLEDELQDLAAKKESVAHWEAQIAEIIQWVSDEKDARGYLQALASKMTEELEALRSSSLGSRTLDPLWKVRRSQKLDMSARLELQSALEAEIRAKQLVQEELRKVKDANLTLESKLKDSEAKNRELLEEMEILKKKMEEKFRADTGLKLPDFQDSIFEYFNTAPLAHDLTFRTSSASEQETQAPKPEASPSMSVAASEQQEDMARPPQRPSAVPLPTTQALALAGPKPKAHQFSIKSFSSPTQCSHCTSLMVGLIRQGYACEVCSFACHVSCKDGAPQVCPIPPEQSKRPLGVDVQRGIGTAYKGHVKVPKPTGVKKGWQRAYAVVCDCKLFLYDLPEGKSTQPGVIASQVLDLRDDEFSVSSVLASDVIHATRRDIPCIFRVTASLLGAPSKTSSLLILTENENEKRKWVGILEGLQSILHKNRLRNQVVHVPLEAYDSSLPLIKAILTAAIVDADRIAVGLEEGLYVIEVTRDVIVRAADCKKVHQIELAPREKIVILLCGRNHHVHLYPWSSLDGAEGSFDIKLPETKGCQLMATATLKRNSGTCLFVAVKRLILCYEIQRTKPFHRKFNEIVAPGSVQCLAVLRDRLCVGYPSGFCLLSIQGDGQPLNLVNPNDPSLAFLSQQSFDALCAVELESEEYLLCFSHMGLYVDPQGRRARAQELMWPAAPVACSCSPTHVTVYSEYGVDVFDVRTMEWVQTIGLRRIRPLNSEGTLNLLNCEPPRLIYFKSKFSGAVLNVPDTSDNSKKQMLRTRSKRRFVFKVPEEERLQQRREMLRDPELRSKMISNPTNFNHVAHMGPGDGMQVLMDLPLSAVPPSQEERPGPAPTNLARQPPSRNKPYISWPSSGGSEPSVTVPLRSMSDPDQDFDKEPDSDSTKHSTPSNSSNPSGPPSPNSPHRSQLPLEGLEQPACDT
# Sequence of Phosphatidylinositol 4,5-bisphosphate 3-kinase catalytic subunit alpha isoform (Homo sapiens), P42336 [Q546K] (P42336 whole entry Q546K, canonical isoform): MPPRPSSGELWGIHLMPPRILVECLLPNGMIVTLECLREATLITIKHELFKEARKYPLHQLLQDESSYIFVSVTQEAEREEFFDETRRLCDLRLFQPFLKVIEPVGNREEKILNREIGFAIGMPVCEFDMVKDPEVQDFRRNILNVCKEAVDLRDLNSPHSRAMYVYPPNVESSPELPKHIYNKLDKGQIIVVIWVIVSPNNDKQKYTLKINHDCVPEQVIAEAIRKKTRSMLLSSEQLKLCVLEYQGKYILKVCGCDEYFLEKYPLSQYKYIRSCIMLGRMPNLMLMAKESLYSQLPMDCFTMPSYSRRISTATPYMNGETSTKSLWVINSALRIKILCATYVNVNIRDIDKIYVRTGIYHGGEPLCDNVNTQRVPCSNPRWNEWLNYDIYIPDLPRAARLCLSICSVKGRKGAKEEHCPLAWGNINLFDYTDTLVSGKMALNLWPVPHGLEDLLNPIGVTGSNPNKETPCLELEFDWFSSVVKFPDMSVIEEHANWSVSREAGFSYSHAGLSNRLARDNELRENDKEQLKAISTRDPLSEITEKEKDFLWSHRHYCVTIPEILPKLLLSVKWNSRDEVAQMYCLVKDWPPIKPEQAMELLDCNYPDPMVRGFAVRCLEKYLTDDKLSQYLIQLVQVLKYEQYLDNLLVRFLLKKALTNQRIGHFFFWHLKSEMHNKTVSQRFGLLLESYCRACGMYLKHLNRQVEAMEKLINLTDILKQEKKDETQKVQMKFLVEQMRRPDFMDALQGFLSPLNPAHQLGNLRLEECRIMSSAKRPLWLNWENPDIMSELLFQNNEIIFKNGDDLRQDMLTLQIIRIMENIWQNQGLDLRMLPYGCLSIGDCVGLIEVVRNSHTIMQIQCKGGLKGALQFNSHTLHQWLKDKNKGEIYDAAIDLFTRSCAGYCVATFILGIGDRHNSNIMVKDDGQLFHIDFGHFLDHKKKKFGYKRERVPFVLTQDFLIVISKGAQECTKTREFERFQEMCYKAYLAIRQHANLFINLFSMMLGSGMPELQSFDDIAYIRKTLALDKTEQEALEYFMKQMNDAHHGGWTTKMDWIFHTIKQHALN
# Sequence of cAMP-dependent protein kinase catalytic subunit PRKX (Homo sapiens) (P51817 whole entry): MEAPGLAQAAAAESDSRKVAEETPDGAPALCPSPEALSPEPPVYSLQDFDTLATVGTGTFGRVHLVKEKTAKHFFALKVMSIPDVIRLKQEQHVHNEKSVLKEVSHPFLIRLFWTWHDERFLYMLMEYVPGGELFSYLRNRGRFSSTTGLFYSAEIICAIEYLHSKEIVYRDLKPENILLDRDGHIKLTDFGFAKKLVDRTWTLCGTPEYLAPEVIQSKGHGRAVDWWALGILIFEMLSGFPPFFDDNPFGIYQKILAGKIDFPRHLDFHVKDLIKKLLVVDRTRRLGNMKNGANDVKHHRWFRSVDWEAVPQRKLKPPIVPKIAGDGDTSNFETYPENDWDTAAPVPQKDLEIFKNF
smiles,measurement,setting,value
CN(C)CC#Cc1ccc(OCCCc2sc(N3CCc4cccc(C(=O)Nc5nc6ccccc6s5)c4C3)nc2C(=O)O)c(F)c1 [A-1155463],residual activity,[1],100%
same,residual activity,[2],88%
same,residual activity,[3],100%
same,residual activity,[4],100%
same,residual activity,[5],83%
same,inhibition,[6],-1.75%
same,residual activity,[7],98%
same,residual activity,[8],100%
same,residual activity,[9],100%
same,residual activity,[10],98%
same,residual activity,[11],100%
same,residual activity,[12],100%
same,residual activity,[13],100%
same,residual activity,[14],70%
same,residual activity,[15],77%
same,residual activity,[16],89%
same,residual activity,[17],100%
same,residual activity,[18],100%
same,residual activity,[19],97%
same,residual activity,[20],100%
same,residual activity,[21],97%
same,inhibition,[22],16.4%
same,residual activity,[23],91%
same,residual activity,[24],79%
same,residual activity,[25],100%
same,residual activity,[26],100%
same,residual activity,[27],100%
same,residual activity,[28],93%
same,residual activity,[29],91%
same,residual activity,[30],75%
same,residual activity,[31],87%
same,inhibition,[32],40.1%
same,residual activity,[33],100%
same,residual activity,[34],100%
same,inhibition,[35],54.6%
same,residual activity,[36],100%
same,inhibition,[37],1.52%
same,inhibition,[38],23.2%
same,residual activity,[39],94%
same,residual activity,[40],97%
same,residual activity,[41],100%
same,residual activity,[42],96%
same,residual activity,[43],99%
